PubChem BioAssay (NCI)
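A five-concentration, 48-hour dose response in 96-well plates underlies each endpoint, interpolated linearly between surrounding concentrations. The concentration for 50% growth inhibition is given as GI50. TGI denotes the concentration required for complete inhibition of growth.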

Legend:
Assay in all cases: NCI tumour cell line growth inhibition, 48 h
SF-295 CNS = system: SF-295 CNS
SK-MEL-5 melanoma = system: SK-MEL-5 melanoma
786-0 renal = system: 786-0 renal
SN12C renal = system: SN12C renal
COLO 205 colon = system: COLO 205 colon
MDA-MB-231 breast = system: MDA-MB-231 breast
NCI-H522 lung = system: NCI-H522 lung
CAKI-1 renal = system: CAKI-1 renal
NCI-H460 lung = system: NCI-H460 lung
MDA-MB-435 = system: MDA-MB-435
OVCAR-5 ovarian = system: OVCAR-5 ovarian
SK-OV-3 ovarian = system: SK-OV-3 ovarian
HCT-116 colon = system: HCT-116 colon
OVCAR-8 ovarian = system: OVCAR-8 ovarian
SNB-19 CNS = system: SNB-19 CNS
SF-539 CNS = system: SF-539 CNS
MCF7 breast = system: MCF7 breast
SK-MEL-2 melanoma = system: SK-MEL-2 melanoma
IGROV1 ovarian = system: IGROV1 ovarian
PC-3 prostate = system: PC-3 prostate
UACC-257 melanoma = system: UACC-257 melanoma
HOP-62 NSCLC = system: HOP-62 NSCLC
KM12 colon = system: KM12 colon
NCI-H226 lung = system: NCI-H226 lung
TK-10 renal = system: TK-10 renal
A498 renal = system: A498 renal
HT29 colon = system: HT29 colon
NCI-H23 lung = system: NCI-H23 lung
HS 578T breast = system: HS 578T breast
SK-MEL-28 melanoma = system: SK-MEL-28 melanoma
BT-549 breast = system: BT-549 breast
T-47D breast = system: T-47D breast
M14 melanoma = system: M14 melanoma
SW-620 colon = system: SW-620 colon
SF-268 CNS = system: SF-268 CNS
EKVX NSCLC = system: EKVX NSCLC
MOLT-4 leukemia = system: MOLT-4 leukemia
RXF 393 renal = system: RXF 393 renal
HOP-92 NSCLC = system: HOP-92 NSCLC
LOX IMVI melanoma = system: LOX IMVI melanoma
HCT-15 colon = system: HCT-15 colon
MALME-3M melanoma = system: MALME-3M melanoma
U251 CNS = system: U251 CNS
SNB-75 CNS = system: SNB-75 CNS
ACHN renal = system: ACHN renal
RPMI-8226 leukemia = system: RPMI-8226 leukemia
CCRF-CEM leukemia = system: CCRF-CEM leukemia
UACC-62 melanoma = system: UACC-62 melanoma
OVCAR-4 ovarian = system: OVCAR-4 ovarian
A549 NSCLC = system: A549 NSCLC
OVCAR-3 ovarian = system: OVCAR-3 ovarian
UO-31 renal = system: UO-31 renal
NCI/ADR-RES ovarian = system: NCI/ADR-RES ovarian
DU-145 prostate = system: DU-145 prostate
HL-60(TB) leukemia = system: HL-60(TB) leukemia
K-562 leukemia = system: K-562 leukemia
HCC-2998 colon = system: HCC-2998 colon
SR leukemia = system: SR leukemia

SMILES: O=C(O)c1cccc(/C=C/c2ccccc2)c1
- TGI (SF-295 CNS): > 100 µM
- TGI (SK-MEL-5 melanoma): > 100 µM
- TGI (786-0 renal): > 100 µM
- TGI (SN12C renal): > 100 µM
- TGI (COLO 205 colon): > 100 µM
- TGI (MDA-MB-231 breast): > 100 µM
- TGI (NCI-H522 lung): > 100 µM
- TGI (CAKI-1 renal): > 100 µM
- TGI (NCI-H460 lung): > 100 µM
- TGI (MDA-MB-435): > 100 µM
- TGI (OVCAR-5 ovarian): > 100 µM
- TGI (SK-OV-3 ovarian): > 100 µM
- TGI (HCT-116 colon): > 100 µM
- TGI (OVCAR-8 ovarian): > 100 µM
- TGI (SNB-19 CNS): > 100 µM
- TGI (SF-539 CNS): > 100 µM
- TGI (MCF7 breast): > 100 µM
- TGI (SK-MEL-2 melanoma): > 100 µM
- TGI (IGROV1 ovarian): > 100 µM
- TGI (PC-3 prostate): > 100 µM
- TGI (UACC-257 melanoma): > 100 µM
- TGI (HOP-62 NSCLC): > 100 µM
- TGI (KM12 colon): > 100 µM
- TGI (NCI-H226 lung): > 100 µM
- TGI (TK-10 renal): > 100 µM
- TGI (A498 renal): > 100 µM
- TGI (HT29 colon): > 100 µM
- TGI (NCI-H23 lung): > 100 µM
- TGI (HS 578T breast): > 100 µM
- TGI (SK-MEL-28 melanoma): > 100 µM
- TGI (BT-549 breast): > 100 µM
- TGI (T-47D breast): > 100 µM
- TGI (M14 melanoma): > 100 µM
- TGI (SW-620 colon): > 100 µM
- TGI (SF-268 CNS): > 100 µM
- TGI (EKVX NSCLC): > 100 µM
- TGI (MOLT-4 leukemia): > 100 µM
- TGI (RXF 393 renal): > 100 µM
- TGI (HOP-92 NSCLC): > 100 µM
- TGI (LOX IMVI melanoma): > 100 µM
- TGI (HCT-15 colon): > 100 µM
- TGI (MALME-3M melanoma): > 100 µM
- TGI (U251 CNS): > 100 µM
- TGI (SNB-75 CNS): > 100 µM
- TGI (ACHN renal): > 100 µM
- TGI (RPMI-8226 leukemia): > 100 µM
- TGI (CCRF-CEM leukemia): > 100 µM
- TGI (UACC-62 melanoma): > 100 µM
- TGI (OVCAR-4 ovarian): > 100 µM
- TGI (A549 NSCLC): > 100 µM
- TGI (OVCAR-3 ovarian): > 100 µM
- TGI (UO-31 renal): > 100 µM
- TGI (NCI/ADR-RES ovarian): > 100 µM
- TGI (DU-145 prostate): > 100 µM

SMILES: CCOC(=O)Nc1nc2cc(OCC)ccc2s1
- GI50 (SF-295 CNS): > 100 µM
- TGI (SF-295 CNS): > 100 µM
- GI50 (SK-MEL-5 melanoma): 8.44 µM
- TGI (SK-MEL-5 melanoma): > 100 µM
- GI50 (786-0 renal): > 100 µM
- TGI (786-0 renal): > 100 µM
- GI50 (SN12C renal): > 84.4 µM
- TGI (SN12C renal): > 100 µM
- GI50 (COLO 205 colon): 7.84 µM
- TGI (COLO 205 colon): > 100 µM
- GI50 (MDA-MB-231 breast): > 100 µM
- TGI (MDA-MB-231 breast): > 100 µM
- GI50 (NCI-H522 lung): 6.05 µM
- TGI (NCI-H522 lung): > 100 µM
- GI50 (CAKI-1 renal): > 75.4 µM
- TGI (CAKI-1 renal): > 100 µM
- GI50 (NCI-H460 lung): 8.02 µM
- TGI (NCI-H460 lung): > 100 µM
- GI50 (MDA-MB-435): 0.923 µM
- TGI (MDA-MB-435): 5.15 µM
- GI50 (OVCAR-5 ovarian): > 100 µM
- TGI (OVCAR-5 ovarian): > 100 µM
- GI50 (SK-OV-3 ovarian): > 100 µM
- TGI (SK-OV-3 ovarian): > 100 µM
- GI50 (HCT-116 colon): 6.82 µM
- TGI (HCT-116 colon): > 100 µM
- GI50 (HL-60(TB) leukemia): 4.85 µM
- TGI (HL-60(TB) leukemia): > 100 µM
- GI50 (OVCAR-8 ovarian): > 76.1 µM
- TGI (OVCAR-8 ovarian): > 100 µM
- GI50 (SNB-19 CNS): > 100 µM
- TGI (SNB-19 CNS): > 100 µM
- GI50 (SF-539 CNS): > 100 µM
- TGI (SF-539 CNS): > 100 µM
- GI50 (MCF7 breast): 5.01 µM
- TGI (MCF7 breast): > 100 µM
- GI50 (K-562 leukemia): 3 µM
- TGI (K-562 leukemia): > 100 µM
- GI50 (SK-MEL-2 melanoma): 16.3 µM
- TGI (SK-MEL-2 melanoma): > 100 µM
- GI50 (IGROV1 ovarian): > 91.1 µM
- TGI (IGROV1 ovarian): > 100 µM
- GI50 (PC-3 prostate): > 100 µM
- TGI (PC-3 prostate): > 100 µM
- GI50 (UACC-257 melanoma): > 100 µM
- TGI (UACC-257 melanoma): > 100 µM
- GI50 (HOP-62 NSCLC): 38.4 µM
- TGI (HOP-62 NSCLC): > 100 µM
- GI50 (KM12 colon): 3.86 µM
- TGI (KM12 colon): > 100 µM
- GI50 (NCI-H226 lung): > 100 µM
- TGI (NCI-H226 lung): > 100 µM
- GI50 (TK-10 renal): > 72.9 µM
- TGI (TK-10 renal): > 100 µM
- GI50 (A498 renal): 6.46 µM
- TGI (A498 renal): > 100 µM
- GI50 (HCC-2998 colon): > 41.3 µM
- TGI (HCC-2998 colon): > 100 µM
- GI50 (HT29 colon): 4.26 µM
- TGI (HT29 colon): > 100 µM
- GI50 (NCI-H23 lung): > 100 µM
- TGI (NCI-H23 lung): > 100 µM
- GI50 (HS 578T breast): 50 µM
- TGI (HS 578T breast): > 100 µM
- GI50 (SK-MEL-28 melanoma): > 100 µM
- TGI (SK-MEL-28 melanoma): > 100 µM
- GI50 (BT-549 breast): > 100 µM
- TGI (BT-549 breast): > 100 µM
- GI50 (T-47D breast): 35 µM
- TGI (T-47D breast): > 100 µM
- GI50 (M14 melanoma): 8.94 µM
- TGI (M14 melanoma): > 100 µM
- GI50 (SW-620 colon): 4.74 µM
- TGI (SW-620 colon): > 100 µM
- GI50 (SR leukemia): 1.52 µM
- TGI (SR leukemia): > 100 µM
- GI50 (SF-268 CNS): > 79.7 µM
- TGI (SF-268 CNS): > 100 µM
- GI50 (MOLT-4 leukemia): 31.7 µM
- TGI (MOLT-4 leukemia): > 100 µM
- GI50 (RXF 393 renal): > 100 µM
- TGI (RXF 393 renal): > 100 µM
- GI50 (HOP-92 NSCLC): > 100 µM
- TGI (HOP-92 NSCLC): > 100 µM
- GI50 (LOX IMVI melanoma): > 47.4 µM
- TGI (LOX IMVI melanoma): > 100 µM
- GI50 (HCT-15 colon): 4.8 µM
- TGI (HCT-15 colon): > 100 µM
- GI50 (MALME-3M melanoma): > 100 µM
- TGI (MALME-3M melanoma): > 100 µM
- GI50 (U251 CNS): 26.8 µM
- TGI (U251 CNS): > 100 µM
- GI50 (SNB-75 CNS): 53.8 µM
- TGI (SNB-75 CNS): > 100 µM
- GI50 (ACHN renal): > 100 µM
- TGI (ACHN renal): > 100 µM
- GI50 (RPMI-8226 leukemia): > 65.8 µM
- TGI (RPMI-8226 leukemia): > 100 µM
- GI50 (CCRF-CEM leukemia): > 100 µM
- TGI (CCRF-CEM leukemia): > 100 µM
- GI50 (UACC-62 melanoma): 58.3 µM
- TGI (UACC-62 melanoma): > 100 µM
- GI50 (OVCAR-4 ovarian): > 100 µM
- TGI (OVCAR-4 ovarian): > 100 µM
- GI50 (A549 NSCLC): 9.83 µM
- TGI (A549 NSCLC): > 100 µM
- GI50 (OVCAR-3 ovarian): 35 µM
- TGI (OVCAR-3 ovarian): > 100 µM
- GI50 (UO-31 renal): > 100 µM
- TGI (UO-31 renal): > 100 µM
- GI50 (NCI/ADR-RES ovarian): 6.02 µM
- TGI (NCI/ADR-RES ovarian): > 100 µM
- GI50 (DU-145 prostate): > 100 µM
- TGI (DU-145 prostate): > 100 µM
